Experimental data taken from patent US20230312687A1, “CELL-FREE ANIMAL COLLAGEN, METHODS OF PRODUCTION AND USES THEREOF” (ALEPH FARMS LTD., priority 2020, published 2023).
“Also recorded” adds a separate entry of the source.

What was measured:
Type in all cases: cell-based
[1] = system: Bovine LOX (lysyl oxidase) gene; experiment: RT-PCR analysis of LOX mRNA level after siRNA transfection; conditions: 20 nM siRNA, bovine stromal cells, 24 hours after transfection, n=2
Procedure: The Bovine LOX (lysyl oxidase) gene (Gene ID: 280841) was knockdown using siRNA. 20,000 bovine stromal cells/cm^2 were transfected with 20 nM of siRNA sequence against LOX (5′[…]3′; SEQ ID NO:1) or a scramble sequence (5′[…]3′; SEQ ID NO:2) as control, using Dharmacon DharmaFECT 1 transfection reagent. 24 hours after transfection the cells were lysed for RNA extraction. The RNA was reverse transcribed to cDNA and 5 ng/μl were subjected to RT-PCR with the following primers: […]

[2] = system: bovine embryonic fibroblasts; experiment: Insoluble collagen from culture dish (Total Collagen Assay kit, hydroxyproline); conditions: different concentrations of GM6001 (0-500 μM in text, 0-200 μM in legend), 4 days
Procedure: 24 hours after seeding the medium was changed to basal medium with different concentration (0-500 μM) of GM6001, a matrix metalloprotease (MMP) inhibitor which prevents C-terminal cleavage of the procollagen.
• 1. Wash the cells once with PBS.
(§1) 35,000 bovine embryonic fibroblast cells/cm^2 were seeded in standard medium (DMEM+10% Fetal Bovine Serum+1% penicillin\streptomycin). 24 hours after seeding the medium was changed to basal medium with different concentration (0-500 μM) of GM6001, a matrix metalloprotease (MMP) inhibitor which prevents C-terminal cleavage of the procollagen. After 4 days, the medium was collected from the cultures and measured for soluble collagen levels. Insoluble collagen was collected from the culture dish its level was measured.

[3] = system: bovine embryonic fibroblasts; experiment: Secreted soluble collagen in growth medium (QuickZyme soluble collagen assay, Sirius Red)
Procedure: (§2) 35,000 bovine embryonic fibroblast cells/cm^2 were seeded in standard medium. 24 hours later the medium was changed to basal medium and the soluble collagen was measured on day 6 or 7. Likewise, 20,000 stromal cells/cm^2 were seeded in basal medium. 24 hours later the cells were transfected with siRNA targeted to LOX or a scramble sequence as a control. After 24 hours the medium was changed to fresh basal medium. The soluble collagen levels were measured daily from day 3 until day 7.
(§3) Secreted soluble collagen was measured using QuickZyme soluble collagen assay which is based on binding of the dye Sirius Red to collagen. Following binding of the dye, the collagen-dye complex precipitates, resulting in a colored pellet. The pellet is re-suspended in an alkaline solution and the absorbance is measured in a plate reader.
(§4) • 1. Conditioned culture medium is collected and centrifuged for 10 minutes at 1,500 g (at 4° C.) to remove cell debris. • 2. The supernatant is diluted in a dilution buffer placed in the assay microplate (V-shaped plate). • 3. The collagen standard solution is diluted in serial dilutions in the dilution buffer and placed in the assay microplate (V-shaped plate). • 4. Sirius red dye is added to the samples and to the standards and mixed. • 5. The plate is centrifuged for 60 minutes at 3000×g at 4° C. to precipitate the pellet. • 6. The pellets are washed and resuspended.
(§5) The resuspended colored solution is transferred to the reading microplate (flat bottom) and read at 540 nm.
35,000 bovine embryonic fibroblast cells/cm^2 were expanded in standard medium (DMEM+10% Fetal Bovine Serum+1% penicillin\streptomycin). 24 hours after seeding their medium was changed to basal medium with 50 μM GM6001.
as §1

bovine stromal cells = experiment: Secreted soluble collagen in growth medium of stromal cells (QuickZyme soluble collagen assay)
Procedure: as §2, §3
as §4, with “The plate is centrifuged for 60 minutes at 3000×g at 4° C. to precipitate the pellet. • 6. The pellets are washed and resuspended.” left out
as §5

Compound | reduction of LOX expression (mRNA) relative to scramble control [1] [%] | insoluble collagen level with increasing GM6001 concentration [2] | amount of secreted soluble collagen for 10^6 bovine embryonic fibroblasts ([3]; 50 μM GM6001) | increase of soluble collagen in the growth medium vs basal medium ([3]; 50 μM GM6001, 72 hours) | amount of soluble collagen in the growth medium ([3]; Basal medium + 50 μM GM6001, 72 hours, N=6, basal medium alone 375) [μg/10^6 cells] | secreted soluble collagen in the growth medium (in words) ([3]; basal medium supplemented with GM6001, bovine embryonic fibroblasts) | maximum soluble collagen level ([3]; basal medium with 50 μM GM6001, measured daily, maximum on the 7th day) [μg\10^6 cells] | soluble collagen level with increasing GM6001 concentration ([3]; different concentrations of GM6001, 4 days, increase up to about 50 μM) | soluble collagen levels in the growth medium, LOX silencing combined with GM6001 (bovine stromal cells; LOX siRNA-treated bovine stromal cells, basal medium with 50 μM GM6001) | secreted soluble collagen in the growth medium (in words) (bovine stromal cells; basal medium supplemented with GM6001, bovine stromal cells)
5′GCUGAUAACCAGACGGCACUU3′ (listed as RNA, chemistry not given here) [siRNA sequence against LOX] | 80 |  |  |  |  |  |  |  |  | 
CNC(=O)[C@H](Cc1c[nH]c2ccccc12)NC(=O)[C@@H](CC(=O)NO)CC(C)C [GM6001, Ilomastat] |  | decrease; also recorded: decreasing | about 1 mg | more than 2 folds | 825 | enhanced | ~900 | enriches; also recorded: increased | increased; also recorded: enhanced | enhanced
